Like-named read-outs stand apart in the source and are kept apart here.
How the values were obtained:
Experiment in all cases: microbe, parasite or virus in culture
Assay type in all cases: cell-based, Hepatitis C virus (HCV)
HCV replicon 1B = details: Replicon Assay B
Protocol: In an alternate assay (“Replicon Assay B”), 1000 cells were seeded per well in a 384-well collagen coated black plate from Greiner bio-one (Cat #781946) in 5% FBS. Inhibitors of this invention were added at 24 h post-seeding, and the plates were incubated for 3 days. Cells were subsequently lysed with Qiagen lysis buffer (Cat #1062731) to extract the RNA. HCV replicon RNA level was measured by real-time PCR using the RNA-to-CT kit from Applied Biosystem (Cat #4392656) and genotype-specific primers and probes. The amplicon was located within NS5B. […] (SEQ. ID NO. 2); the probe sequence was FAM-labeled […] (SEQ. ID NO. 3).
The real-time RT-PCR reactions were run on ABI PRISM 7900HT or Viia7 Sequence Detection System using the following program: 48° C. for 30 minutes, 95° C. for 10 minutes, 40 cycles of 95° C. for 15 sec, 60° C. for 1 minutes.
Data for replicons 1A, 1AY93H and 2B were obtained using Replicon Assay A and data for replicons 1AQ30D and 1B were obtained using Replicon Assay B.

HCV replicon 2B = details: Replicon Assay A
Procedure, shortened: (§1)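 HCV replicon RNA levels were quantified by TaqMan RT-PCR after 3-day compound exposure (0.5% DMSO, 5% FBS). Cyclophilin RNA, co-amplified in the same reaction, served as endogenous control; Ct values were converted to RNA amounts using linear regression standard curves.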

HCV replicon 1AY93H = details: Replicon Assay A
Procedure, shortened: as §1

HCV replicon 1A = details: Replicon Assay A
Procedure, shortened: as §1

[1] = read-out: 1A Y93H IC50, replicon 1AY93H
[2] = Hepatitis C virus, HCV replicon 1B
[3] = Hepatitis C virus, read-out: 2B IC50, HCV replicon 2B
[4] = Hepatitis C virus, HCV replicon 1A
[5] = read-out: 1A Y93H IC50, HCV replicon 1A Y93H

Structure (SMILES)	IC50 (HCV replicon 1B; Hepatitis C virus, replicon 1B) [pM]	IC50 (HCV replicon 2B; read-out: 2B IC50, replicon 2B) [nM]	IC50 (HCV replicon 1AY93H; [1]) [nM]	IC50 (HCV replicon 1A; replicon 1A) [pM]	IC50 (HCV replicon 1B; [2]) [pM]	other results
COC(=O)NC(C(=O)N1CCC[C@H]1c1ncc(-c2cc(F)c3c(c2)OC(c2ccc(C4CC4)s2)n2c-3cc3cc(-c4cnc([C@@H]5CCCN5C(=O)[C@@H](NC(=O)OC)C5CCOCC5)[nH]4)ccc32)[nH]1)C(C)(C)F (single isomer, unassigned) [Compound 169]	3.4	0.075	0.045	1.2	–	–
COC(=O)NC(C(=O)N1CCC[C@H]1c1ncc(-c2ccc3c(c2)cc2n3C(c3ccc(C4CC4)s3)Oc3cc(-c4cnc([C@@H]5CCCN5C(=O)[C@@H](NC(=O)OC)C(C)C)[nH]4)cc(F)c3-2)[nH]1)C1CN(C(=O)OC)C1 (single isomer, unassigned) [Compound 228]	–	0.47	0.5	2	–	IC50 (HCV replicon 1B; replicon 1B): 3.8 pM
COC(=O)N[C@H](C(=O)N1CCC[C@H]1c1ncc(-c2ccc3c(c2)O[C@@H](c2cc4c(s2)CCC4)n2c-3cc3cc(-c4cnc([C@@H]5CCCN5C(=O)[C@@H](NC(=O)OC)C(C)C)[nH]4)ccc32)[nH]1)C(C)C (single isomer, unassigned) [Compound 600]	–	–	–	–	186	IC50 (HCV replicon 2B; [3]): 1.09 nM; IC50 (HCV replicon 1AY93H; Hepatitis C virus, read-out: 1A Y93H IC50, HCV replicon 1A Y93H): 0.57 nM; IC50 (HCV replicon 1A; [4]): 25.6 pM
COC(=O)NC(C(=O)N1CCC[C@H]1c1ncc(-c2cc(F)c3c(c2)OC(c2ccc(C4CC4)s2)n2c-3cc3cc(-c4cnc([C@@H]5C[C@H]6C[C@H]6N5C(=O)[C@@H](NC(=O)OC)C(C)C)[nH]4)ccc32)[nH]1)C(C)(C)F (stereo partly shown) [Compound 97]	2.4	–	–	–	–	IC50 (HCV replicon 2B; Hepatitis C virus, read-out: 2B IC50 (nM), replicon 2B): 0.036 nM; IC50 (HCV replicon 1AY93H; Hepatitis C virus, read-out: 1A Y93H IC50 (nM), replicon 1AY93H): 0.008 nM; IC50 (HCV replicon 1A; Hepatitis C virus, replicon 1A): 1.1 pM
COC(=O)NC(C(=O)N1CCC[C@H]1c1ncc(-c2ccc3c(c2)cc2n3C(c3cc(C)c(C)s3)Oc3cc(-c4cnc([C@@H]5CCCN5C(=O)[C@@H](NC(=O)OC)C5CCOCC5)[nH]4)cc(F)c3-2)[nH]1)C(C)(C)F (single isomer, unassigned) [Compound 130]	3.6	0.24	0.24	1.7	–	–
COC(=O)N[C@H](C(=O)N1C[C@H](F)C[C@H]1c1cnc(-c2ccc3c(c2)cc2n3C(c3cc4ccccc4s3)Oc3cc(-c4cnc([C@@H]5C[C@@H](F)CN5C(=O)[C@@H](NC(=O)OC)C(C)C)[nH]4)ccc3-2)[nH]1)C(C)C (single isomer, unassigned) [Compound 805]	–	–	–	–	5	IC50 (HCV replicon 2B; [3]): 21.5 nM; IC50 (HCV replicon 1AY93H; [5]): 0.01 nM; IC50 (HCV replicon 1A; HCV replicon 1A): 10 pM
COC(=O)NC(C(=O)N1CCC[C@H]1c1ncc(-c2ccc3c(c2)cc2n3C(c3ccc(C4CC4)s3)Oc3cc(-c4cnc([C@@H]5C[C@@H](F)CN5C(=O)[C@@H](NC(=O)OC)C(C)C)[nH]4)cc(F)c3-2)[nH]1)C(C)(C)F (single isomer, unassigned) [Compound 114]	2.4	0.2	0.002	1.3	–	–
CC[C@@H]1CC(C(NC(=O)OC)C(=O)N2CCC[C@H]2c2ncc(-c3ccc4c(c3)cc3n4C(c4ccc(C5CC5)s4)Oc4cc(-c5cnc([C@@H]6CCCN6C(=O)[C@@H](NC(=O)OC)C(C)C)[nH]5)cc(F)c4-3)[nH]2)C[C@H](CC)O1 (single isomer, unassigned) [Compound 289]	4.2	5.64	1.24	3.1	–	–
COC(=O)NC(C(=O)N1CCC[C@H]1c1ncc(-c2ccc3c(c2)cc2n3C(c3cc4c(s3)CCC4)Oc3cc(-c4cnc([C@@H]5CCCN5C(=O)[C@@H](NC(=O)OC)C(C)C)[nH]4)cc(C)c3-2)[nH]1)C1CCOC(C)(C)C1 (single isomer, unassigned) [Compound 852]	–	–	–	–	2.5	IC50 (HCV replicon 2B; read-out: 2B IC50, HCV replicon 2B): 0.058 nM; IC50 (HCV replicon 1AY93H; [5]): 1.32 nM; IC50 (HCV replicon 1A; [4]): > 3 pM
COC(=O)N[C@H](C(=O)N1CCC[C@H]1c1ncc(-c2cc(F)c3c(c2)OC(c2ccc(C4CC4)s2)n2c-3c(C)c3cc(-c4cnc([C@@H]5CCCN5C(=O)[C@@H](NC(=O)OC)C(C)C)[nH]4)ccc32)[nH]1)C(C)C (single isomer, unassigned) [Compound 841]	–	–	–	–	–	IC50 (HCV replicon 1B; HCV replicon 1B): 1.7 pM; IC50 (HCV replicon 2B; HCV replicon 2B, read-out: 2B IC50): 0.523 nM; IC50 (HCV replicon 1AY93H; HCV replicon 1A Y93H, read-out: 1A Y93H IC50): 0.849 nM; IC50 (HCV replicon 1A; HCV replicon 1A): 2.6 pM

Reference: patent US20160257697A1, “THIOPHENE-SUBSTITUTED TETRACYCLIC COMPOUNDS AND METHODS OFUSE THEREOF FOR THE TREATMENT OF VIRAL DISEASES” (priority 2013, published 2016)
